Laboratory results as given in US8026254B2, “Therapeutic agents useful for treating pain” (Purdue Pharma, L.P., priority 2002, dated 2011).

Biological target: μ-opioid receptors (Homo sapiens, UniProt P35372)
Assay: μ-opioid receptor radioligand dose-displacement binding assay ([3H]-diprenorphine)
Experimental: μ- and ORL-1-Receptor-Binding-Assay Procedures
Radioligand dose-displacement binding assays for ORL-1 and […] use 0.1 nM [^3H]-nociceptin or 0.2 nM [^3H]-diprenorphine (NEN, Boston, Mass.), respectively, with […] membrane protein/well in a final volume of […] binding buffer (10 mM MgCl2, 1 mM EDTA, 5% DMSO, 50 mM HEPES, pH 7.4). Reactions are carried out in the absence or presence of increasing concentrations of unlabled nociceptin (American Peptide Company, Sunnyvale, Calif.) or naloxone, for ORL-1 and μ, respectively. All reactions are conducted in 96-deep well polypropylene plates for 1-2 h at room temperature. Binding reactions are terminated by rapid filtration onto 96-well Unifilter GF/C filter plates (Packard, Meriden, Conn.) presoaked in 0.5% polyethylenimine using a 96-well tissue harvester (Brandel, Gaithersburg, Md.) followed performing by three filtration washes with 500 μL of ice-cold binding buffer. Filter plates are subsequently dried at 50° C. for 2-3 h. BetaScint scintillation cocktail (Wallac, Turku, Finland) is added (50 μl/well), and plates are counted using a Packard Top-Count for 1 min/well. The data are analyzed using the one-site competition curve fitting functions in GraphPad PRISM v. 3.0 (San Diego, Calif.).

Chain of μ-opioid receptors (P35372 whole entry): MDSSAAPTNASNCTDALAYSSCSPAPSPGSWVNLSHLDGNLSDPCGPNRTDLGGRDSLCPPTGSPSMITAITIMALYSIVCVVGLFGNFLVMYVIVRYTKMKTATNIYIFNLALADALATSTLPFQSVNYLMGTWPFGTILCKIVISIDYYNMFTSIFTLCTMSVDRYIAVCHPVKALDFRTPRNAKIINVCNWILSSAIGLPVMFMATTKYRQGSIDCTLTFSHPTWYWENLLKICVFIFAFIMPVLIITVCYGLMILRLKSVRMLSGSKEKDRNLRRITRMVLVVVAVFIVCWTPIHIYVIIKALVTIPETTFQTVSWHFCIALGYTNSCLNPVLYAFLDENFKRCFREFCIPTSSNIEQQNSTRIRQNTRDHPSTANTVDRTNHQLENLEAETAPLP

CN(C)C(=O)C(CCN1CCC(c2ccccc2)(c2nnn[nH]2)CC1)(c1ccccc1)c1ccccc1 [AFD]
Ki: 3.2 nM
